Laboratory results published in PMC12084297, “Cytoplasmic connexin43-microtubule interactions promote glioblastoma stem-like cell maintenance and tumorigenicity” (Cell Death & Disease, 2025).

Test system: α-tubulin
Experiment: Co-immunoprecipitation with α-tubulin antibody: peptide interaction with α-tubulin
Assay type: binding, human
Conditions: VTC-037 GSCs, 50 μM, 24 h, cross-linked (DTBP); compared to antennapedia alone or JM2-scrambled; NeutrAvidin-HRP detection
Protocol: Prior to lysis, cross-linking was completed by incubating cells in DTBP (dimethyl 3,3’-dithiobispropionimidate; 2 mM in PBS) for 30 min at 37 °C followed by a glycine quench (100 mM glycine in PBS) for 15 min at room temperature. Cross-linked samples were lysed in RIPA buffer supplemented with Halt^TM Protease and Phosphatase Inhibitor Cocktail as described above, but without sonication. Co-immunoprecipitation (co-IP) assays were also performed without cross-linking; non-cross-linked samples were lysed using a co-IP lysis buffer (0.5% Triton X-100, 50 mM Tris HCl, 150 mM NaCl, 1 mM EDTA, 1 mM EGTA, 1 mM DTT, 0.1 mM Na3VO4, and 1 mM NaF) supplemented with Halt^TM Protease and Phosphatase Inhibitor Cocktail, without sonication. Protein concentration was quantified using the DC protein assay and a standard curve obtained with increasing concentrations of BSA, and 500 μg of total protein was used per reaction for co-IP. Inputs were removed prior to co-IP and denatured in Bolt LDS sample buffer as described above. Remaining protein lysates were incubated with Protein G Sepharose^TM 4 Fast Flow beads (GE Healthcare) for pre-clearance for 30 min at 4 °C. Samples were incubated with 2 μg of mouse anti-α-tubulin (MilliporeSigma, T6199) for cross-linked samples or mouse anti-Cx43 antibody (EMD Millipore; MAB3067) for non-cross-linked samples for 90 min at 4 °C. […]

VFFKGVKDRVKGRSD [JM2]
Interaction of peptide with α-tubulin (co-IP): robustly interacted with α-tubulin
